Experiment [1] has as its system Vitis vinifera cv. Early Sweet single-node cuttings. Nature of the experiment: Bud break on grapevine single-node cuttings in growth chamber. In kind it is in vivo.
Experiment [2] has as its system berries of cv. Early Sweet vines. The experiment is described as follows: TSS (sugar) level of berries of treated vines. In kind it is in vivo, Vitis vinifera. The following applies: Example 3, FIG. 4; 6% DADS with 2% Armobreak®; Brix meter; versus control and HC.
The subject of experiment [3] is grapevine buds (cuttings, whole vine). The following applies: cited from earlier work.
Experiment [4] has as its system cv. Early Sweet vines. Nature of the experiment: Bud break on whole vines, greenhouse in Argaman, Jordan Valley. In kind it is in vivo, Vitis vinifera. The following applies: Example 21, FIGS. 23A, 23B; 6% DADS alone (DADS 6% control); natural bud break about 25-45%.
For experiment [5], the system named is corms, tubers and apple buds. The following applies: cited from earlier work.
Experiment [6] relates to cv. Early Sweet vines. The experiment is described as follows: Bud break on whole vines in a vineyard, Jordan Valley (spur pruning, hot winter). In kind it is in vivo, Vitis vinifera. Particulars: Example 2, FIG. 2, negative control Triton, positive control 5% HC.
For experiment [7], the system named is whole vines in vineyards. The experiment is described as follows: Overall bud break in vineyards, summary over the examples. Particulars: spur pruned vineyard in region with higher chilling (FIG. 19, Example 17). In kind it is in vivo, grapevine.

In the case of `C=CCSCC=C` [DAS, Diallyl Sulfide], the bud break entry in experiment [1] (Example 5, FIG. 7, higher concentrations of DAS (0.1%, 1%, 5% tested) with 2% Armobreak®, control 2% Armobreak®) is listed as “may reduce bud breaking”; in experiment [1] (Example 5, FIG. 7, relatively low concentrations of DAS (0.1%, 1%, 5% tested) with 2% Armobreak®, control 2% Armobreak®), “enhance bud breaking in grapevine cuttings”.
On to `C=CCSSCC=C` [DADS, diallyl disulfide], for which the bud break result in experiment [1] (Example 1, FIG. 1, 1% DADS sprayed with 0.02% Triton X-100, compared with 0.1%, 5% and 10% DADS) is “best result”; in experiment [1] (Example 1, FIG. 1, 5% DADS sprayed with 0.02% Triton X-100, control 0.02% Triton X-100 only, 22° C., monitored to day 28), “toxic and actually inhibit bud break”; in experiment [1] (Example 1, FIG. 1, 10% DADS sprayed with 0.02% Triton X-100, control 0.02% Triton X-100 only, monitored to day 28) it was “toxic and actually inhibit bud break”; in experiment [4] it was “results within the range of the natural bud break”; in experiment [5], “enhanced bud break of corms, tubers and apple buds”; in experiment [6] (2% DADS with 0.02% Triton X-100) it was “no effect”. For the same compound, in experiment [6] (4% DADS with 0.02% Triton X-100), the bud break entry is “slight enhancement in bud break in comparison to the negative control”. Also, in experiment [2], the “TSS levels of the berries (ripening)” value was “increase the total soluble solids (TSS) level of the berries in comparison to the control”. For the same compound, in experiment [3] (applied to the whole vine, rather than to cuttings), the “bud break enhancing effect” value is “very limited and inferior to the known HC”. Further, the “grapevine bud break enhancement among garlic volatile compounds” value in experiment [3] (volatile compounds containing sulfur and allyl groups) is given as “particularly effective”.
As for `N#CN` [HC, hydrogen cyanamide], the bud break entry in experiment [7] is recorded as “a milder effect or no effect”.

Source of the values: patent US11213027B2, “Combined administration of a penetration agent and a sulfur containing compound to plants” (THE STATE OF ISRAEL, MINISTRY OF AGRICULTURE & RURAL …, priority 2016, dated 2022).
